Key:
[1] = Acute toxicity test, oral administration to rats; settings: rat, in vivo, orally administered
Experimental: The acute toxicity was determined by an acute toxicity test wherein each sample compound was orally administered to rats. The results (LD50 values) thus obtained are listed below: […]

3T3-L1 cells = assay: Glucose-uptake test (2-DOG uptake) in 3T3-L1 cells; assay type: cell-based; settings: Mus musculus, 3T3-L1, 24 h, 50 μg/ml, cpm divided by amount of proteins, read-out: 2-DOG Uptake (%) at a concentration of 50 μg/ml
Experimental: Glucose-uptake tests as a means for screening compounds for the effect of reducing the blood sugar level were carried out according to the following procedures. 1) Cell: The following cells were used. 3T3-L1 (purchased from Dainippon Pharmaceutical Co. Ltd.) 2) Reagents: The following reagents were used. DMEM (GIBCO); FBS (GIBCO); […] DMSO: dimethylsulfoxide (Wako Pure Chemical Co., Ltd.); ACS2 (Amersham); urea (Wako Pure Chemical Co., Ltd.); protein-determining kit (Bio Rad Code No.). 3) Instrument: The following instrument was used in the test. 24-well plate (Falcon) 3T3-L1 cells were dispersed in a 10% FBS-containing DME medium in a cell concentration of 10000 cells/ml, the resulting cell suspension was dispensed into a 24-well plate in an amount of 1 ml per well and the cells were cultivated in a 5% CO2 -incubator at 37° C. for 5 days. After soaking up the medium in the wells, the plate was washed once with PBS in an amount of 2 ml/well. […] The cells were cultivated in a sample compound-containing medium at 37° C. for 24 hours in a 5%-CO2 -incubator. After the cultivation, the medium was soaked up and the plate was washed three times with 2 ml/well each of PBS. […] After washing with 2 ml/well of PBS, the PBS was sufficiently soaked up. […] The lysate was also inspected for the amount of proteins using 0.2 ml out of the rest of the lysate, according to the microassay method using a protein-determining kit.

SMILES | LD50 [1] [mg/kg] | activity at 50 µg/mL (3T3-L1 cells) [%]
O=C1NC(=O)C(Cc2cccc3c2ccn3Cc2ccc(F)cc2)S1 (stereo not drawn) [Example 52, 5-[1-(4-fluorobenzyl)indol-4-yl]-methyl-2,4-thiazolidinedione] | ≥ 2000 | 280
O=C1NC(=O)C(Cc2cn(Cc3cc(F)cc(F)c3)c3ccccc23)S1 (stereo not drawn) [Example 275, 5-[1-(3,5-difluorobenzyl)indol-3-yl]methyl-2,4-thiazolidinedione] |  | 185
C=C(C)[C@@H]1CC=C(Cn2ccc3c(CC4SC(=O)NC4=O)cccc32)CC1 (stereo partly drawn) [Example 208, 5-[1-(4S-p-mentha-1,8-dien-7-yl)indol-4-yl]methyl-2,4-thiazolidinedione] |  | 189
O=C1NC(=O)C(Cc2cccc3c2ccn3Cc2cc(F)cc(F)c2)S1 (stereo not drawn) [Example 71, 5-[1-(3,5-difluorobenzyl)indol-4-yl]-methyl-2,4-thiazolidinedione] |  | 250
O=C1NC(=O)C(Cc2cccc3c2ccn3S(=O)(=O)c2ccc(F)cc2)S1 (stereo not drawn) [Example 21, 5-[1-(4-fluorobenzenesulfonyl)indol-4-yl]-methyl-2,4-thiazolidinedione] |  | 162
O=C1NC(=O)C(Cc2cccc3c2ccn3CCc2ccccc2)S1 (stereo not drawn) [Example 121, 5-(1-phenethylindol-4-yl)methyl-2,4-thiazolidinedione] |  | 218
O=C1NC(=O)C(=Cc2cccc3c2ccn3Cc2ccncc2)S1 [Example 5, 5-[1-(4-picolyl)indol-4-yl]methylene-2,4-thiazolidinedione] |  | 227
CCCCCCn1ccc2c(C=C3SC(=O)NC3=O)cccc21 [Example 155, 5-(1-hexylindol-4-yl)methylene-2,4-thiazolidinedione] |  | 233
N#Cc1cccc(Cn2ccc3c(CC4SC(=O)NC4=O)cccc32)c1 (stereo not drawn) [Example 101, 5-[1-(3-cyanobenzyl)indol-4-yl]methyl-2,4-thiazolidinedione] |  | 240
O=C1NC(=O)C(Cc2cccc3c2ccn3Cc2ccc3c(c2)OCO3)S1 (stereo not drawn) [Example 112, 5-(1-piperonylindole-4-yl)methyl-2,4-thiazolidinedione] |  | 155
CC(C)=CCCn1ccc2c(CC3SC(=O)NC3=O)cccc21 (stereo not drawn) [Example 165, 5-[1-(4-methyl-3-pentenyl)indol-4-yl]methyl-2,4-thiazolidinedione] |  | 285
O=C1NC(=O)C(=Cc2cccc3c2ccn3Cc2ccc3ccccc3n2)S1 [Example 147, 5-{1-[(quinol-2-yl)methyl]indol-4-yl}methylene-2,4-thiazolidinedione] |  | 156
N#Cc1ccc(Cn2cc(CC3SC(=O)NC3=O)c3ccccc32)cc1 (stereo not drawn) [Example 285, 5-[1-(4-cyanobenzyl)indol-3-yl]methyl-2,4-thiazolidinedione] |  | 225
O=C1NC(=O)C(Cc2cccc3c2ccn3C(c2ccccc2)c2ccccc2)S1 (stereo not drawn) [Example 177, 5-[1-(benzhydryl)indol-4-yl]methyl-2,4-thiazolidinedione] |  | 159
Cc1ccc(S(=O)(=O)n2ccc3c(CC4SC(=O)NC4=O)cccc32)cc1 (stereo not drawn) [Example 24, 5-[1-(p-toluenesulfonyl)indol-4-yl]-methyl-2,4-thiazolidinedione] |  | 186
O=C1NC(=O)C(Cc2cn(Cc3ccccc3)c3ccccc23)S1 (stereo not drawn) [Example 288, 5-(1-benzylindol-3-yl)methyl-2,4-thiazolidinedione] |  | 209
Cc1oc(-c2ccccc2)nc1Cn1ccc2c(CC3SC(=O)NC3=O)cccc21 (stereo not drawn) [Example 32, 5-{1-[(5-methyl-2-phenyloxazol-4-yl)methyl]indol-4-yl}methyl-2,4-thiazolidinedione] |  | 215
Cc1nc(Cn2ccc3c(CC4SC(=O)NC4=O)cccc32)cs1 (stereo not drawn) [Example 142, 5-{1-[(2-methylthiazol-4-yl)methyl]indol-4-yl}methyl-2,4-thiazolidinedione] |  | 160
Nc1ccc(Cn2ccc3c(CC4SC(=O)NC4=O)cccc32)cc1 (stereo not drawn) [Example 190, 5-[1-(4-aminobenzyl)indol-4-yl]methyl-2,4-thiazolidinedione] |  | 164
O=C1NC(=O)C(Cc2cccc3c2ccn3Cc2ccccc2)S1 (stereo not drawn) [Example 3, 5-(1-benzylindol-4-yl)methyl-2,4-thiazolidinedione] | ≥ 2000 | 217
O=C1NC(=O)C(Cc2cccc3c2ccn3CC2CCc3ccccc3N2)S1 (stereo not drawn) [Example 148, 5-{1-[(1,2,3,4-tetrahydroquinol-2-yl)methyl]indol-4-yl}methyl-2,4-thiazolidinedione] |  | 153
O=C1NC(=O)C(Cc2cccc3c2ccn3Cc2ccc(C(F)(F)F)cc2C(F)(F)F)S1 (stereo not drawn) [Example 83, 5-{1-[2,4-bis(trifluoromethyl)-benzyl]indol-4-yl}methyl-2,4-thiazolidine-dione] |  | 199
